In general, IC50 refers to the concentration needed to halve the response being measured.

The target in this experiment is T1, Human Factor XIIa (hFXIIa) (Homo sapiens, UniProt P00748).
T1 construct: purchased Enzyme Research Laboratories
T1 sequence (P00748 373-615 limits assumed): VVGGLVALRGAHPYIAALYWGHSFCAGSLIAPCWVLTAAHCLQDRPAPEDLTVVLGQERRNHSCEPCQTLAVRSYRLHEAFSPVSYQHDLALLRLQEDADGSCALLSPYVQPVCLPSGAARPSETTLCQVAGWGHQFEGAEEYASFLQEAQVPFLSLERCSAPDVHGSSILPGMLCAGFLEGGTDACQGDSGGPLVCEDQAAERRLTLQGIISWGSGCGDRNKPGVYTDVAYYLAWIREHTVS
T1 sequence (P00748 20-372 partner limits assumed): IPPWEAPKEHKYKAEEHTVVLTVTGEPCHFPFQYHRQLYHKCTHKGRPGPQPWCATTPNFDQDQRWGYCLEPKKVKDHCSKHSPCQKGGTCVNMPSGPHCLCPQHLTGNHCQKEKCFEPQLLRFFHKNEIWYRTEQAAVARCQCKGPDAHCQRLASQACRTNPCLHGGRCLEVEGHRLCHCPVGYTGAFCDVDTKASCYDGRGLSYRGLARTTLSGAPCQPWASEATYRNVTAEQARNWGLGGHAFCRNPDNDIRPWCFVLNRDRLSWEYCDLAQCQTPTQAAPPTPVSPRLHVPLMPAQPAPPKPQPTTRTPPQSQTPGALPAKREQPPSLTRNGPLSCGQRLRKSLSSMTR
The experiment is described as follows: Determination of Human Factor XIIa (hFXIIa) inhibition, fluorogenic substrate IC50 assay. It counts as biochemical. The note with it: fluorogenic substrate H-DPro-Phe-Arg-AFC at Km, 25° C., read-out: Human FXIIa IC50. Here is the method:
Determination of Human Factor XIIa (hFXIIa) inhibition
The Km for the cleavage of the substrate by hFXIIa was determined by standard transformation of the Michaelis-Menten equation, with subsequent inhibition assays performed at substrate Km concentration.
For `Cc1cn(C)nc1CNC(=O)c1nn(-c2cccc(Cl)c2)c2c1CCN(c1cccc(CN3CCCCC3)c1)C2=O` [Example 1178, 1-(3-chlorophenyl)-N-((1,4-dimethyl-1H-pyrazol-3-yl)methyl)-7-oxo-6-(3-(piperidin-1-ylmethyl)phenyl)-4,5,6,7-tetrahydro-1H-pyrazolo[3,4-c]pyridine-3-carboxamide], the IC50 was in the range of 100 to 300 nM. On to `CCC(C)N1CCc2ccc(N3CCc4c(C(=O)NCC5CC5)nn(-c5cccc(Cl)c5)c4C3=O)cc2C1` (stereo not drawn) [Example 1059, 6-(2-(sec-butyl)-1,2,3,4-tetrahydroisoquinolin-7-yl)-1-(3-chlorophenyl)-N-(cyclopropylmethyl)-7-oxo-4,5,6,7-tetrahydro-1H-pyrazolo[3,4-c]pyridine-3-carboxamide], for which the IC50 is 100 to 300 nM. Turning to `Cc1n[nH]c(C)c1CNC(=O)c1nn(-c2cccc(Cl)c2)c2c1CCN(c1ccc3c(c1)C(=O)N(C)CC3)C2=O` [Example 1268, 1-(3-chlorophenyl)-N-((3,5-dimethyl-1H-pyrazol-4-yl)methyl)-6-(2-methyl-1-oxo-1,2,3,4-tetrahydroisoquinolin-7-yl)-7-oxo-4,5,6,7-tetrahydro-1H-pyrazolo[3,4-c]pyridine-3-carboxamide], the IC50 was in the range of 300 to 1000 nM. As to `Cc1nc2c(C#N)nn(-c3cccc(Cl)c3)c2c(=O)n1-c1ccc2c(c1)CN(C)CC2` [Example 3002, 1-(3-Chlorophenyl)-5-methyl-6-(2-methyl-1,2,3,4-tetrahydroisoquinolin-7-yl)-7-oxo-6,7-dihydro-1H-pyrazolo[4,3-d]pyrimidine-3-carbonitrile], the IC50 fell in the range of 100 to 300 nM. In the case of `Cn1cc(CNC(=O)c2nn(-c3cccc(Cl)c3)c3c2CCN(c2ccc4c(c2)CN(CCO)CC4)C3=O)cn1` [Example 1133, 1-(3-chlorophenyl)-6-(2-(2-hydroxyethyl)-1,2,3,4-tetrahydroisoquinolin-7-yl)-N-((1-methyl-1H-pyrazol-4-yl)methyl)-7-oxo-4,5,6,7-tetrahydro-1H-pyrazolo[3,4-c]pyridine-3-carboxamide] it was 100 to 300 nM; in that of `O=C(NCC1CC1)c1nn(-c2cccc(Cl)c2)c2c1CCN(c1cccc(C(=O)N3CCCC3)c1)C2=O` [Example 1263, 1-(3-chlorophenyl)-N-(cyclopropylmethyl)-7-oxo-6-(3-(pyrrolidine-1-carbonyl)phenyl)-4,5,6,7-tetrahydro-1H-pyrazolo[3,4-c]pyridine-3-carboxamide], 10000 to 40000 nM; in that of `CCN(CC)C(=O)c1cccc(N2CCc3c(C(=O)NCC4CC4)nn(-c4cccc(Cl)c4)c3C2=O)c1` [Example 1286, 1-(3-chlorophenyl)-N-(cyclopropylmethyl)-6-(3-(diethylcarbamoyl)phenyl)-7-oxo-4,5,6,7-tetrahydro-1H-pyrazolo[3,4-c]pyridine-3-carboxamide], 10000 to 40000 nM. Regarding `CN1CCc2ccc(N3CCc4c(C(=O)NCC5(CO)CCC5)nn(-c5cccc(Cl)c5)c4C3=O)cc2C1` [Example 1049, 1-(3-chlorophenyl)-N-((1-(hydroxymethyl)cyclobutyl)methyl)-6-(2-methyl-1,2,3,4-tetrahydroisoquinolin-7-yl)-7-oxo-4,5,6,7-tetrahydro-1H-pyrazolo[3,4-c]pyridine-3-carboxamide], the IC50 was in the range of 100 to 300 nM. With `CN1CCc2ccc(N3CCc4c(C(=O)NC5COC5)nn(-c5cccc(Cl)c5)c4C3=O)cc2C1` [Example 1041, 1-(3-chlorophenyl)-6-(2-methyl-1,2,3,4-tetrahydroisoquinolin-7-yl)-N-(oxetan-3-yl)-7-oxo-4,5,6,7-tetrahydro-1H-pyrazolo[3,4-c]pyridine-3-carboxamide], the IC50 was 300 to 1000 nM. For `NCCN1CCc2ccc(N3CCc4c(C(=O)NCC5CC5)nn(-c5cccc(Cl)c5)c4C3=O)cc2C1` [Example 1098, 6-(2-(2-aminoethyl)-1,2,3,4-tetrahydroisoquinolin-7-yl)-1-(3-chlorophenyl)-N-(cyclopropylmethyl)-7-oxo-4,5,6,7-tetrahydro-1H-pyrazolo[3,4-c]pyridine-3-carboxamide], the concentration for half-maximal inhibition (IC50) lay in the range of 100 to 300 nM. In the case of `Cc1cnccc1CNC(=O)c1nn(-c2cccc(Cl)c2)c2c1CCN(c1ccc3c(c1)CN(CCO)CC3)C2=O` [Example 1163, 1-(3-chlorophenyl)-6-(2-(2-hydroxyethyl)-1,2,3,4-tetrahydroisoquinolin-7-yl)-N-((3-methylpyridin-4-yl)methyl)-7-oxo-4,5,6,7-tetrahydro-1H-pyrazolo[3,4-c]pyridine-3-carboxamide] it was 10 to 100 nM; in that of `CN(C)C(=O)c1csc(N2CCc3c(C(=O)NCC4CC4)nn(-c4cccc(Cl)c4)c3C2=O)c1` [Example 1295, 1-(3-chlorophenyl)-N-(cyclopropylmethyl)-6-(4-(dimethylcarbamoyl)thiophen-2-yl)-7-oxo-4,5,6,7-tetrahydro-1H-pyrazolo[3,4-c]pyridine-3-carboxamide], 10000 to 40000 nM; in that of `CCNC(=O)c1nn(-c2ccc(C)cc2F)c2c1CCN(c1ccc3c(c1)C(=O)N(C)CC3)C2=O` [Example 2034, N-ethyl-1-(2-fluoro-4-methylphenyl)-6-(2-methyl-1-oxo-1,2,3,4-tetrahydroisoquinolin-7-yl)-7-oxo-4,5,6,7-tetrahydro-1H-pyrazolo[3,4-c]pyridine-3-carboxamide], 10000 to 40000 nM. As for `O=C(NCC1CC1)c1nn(-c2cccc(Cl)c2)c2c1CCN(c1cccc(CN3CC4CC4C3)c1)C2=O` (stereo not drawn) [Example 1073, 6-(3-((3-azabicyclo[3.1.0]hexan-3-yl)methyl)phenyl)-1-(3-chlorophenyl)-N-(cyclopropylmethyl)-7-oxo-4,5,6,7-tetrahydro-1H-pyrazolo[3,4-c]pyridine-3-carboxamide], the 50% inhibitory concentration (IC50) was 1000 to 3000 nM.

For the compound `CN1CCc2ccc(N3CCc4c(C(=O)NCc5ccoc5)nn(-c5cccc(Cl)c5)c4C3=O)cc2C1` [Example 1068, 1-(3-chlorophenyl)-N-(furan-3-ylmethyl)-6-(2-methyl-1,2,3,4-tetrahydroisoquinolin-7-yl)-7-oxo-4,5,6,7-tetrahydro-1H-pyrazolo[3,4-c]pyridine-3-carboxamide], the IC50 was in the range of 100 to 300 nM. Turning to `CN1CCc2ccc(N3CCc4c(C(=O)NCC5COC5)nn(-c5cccc(Cl)c5)c4C3=O)cc2C1` [Example 1047, 1-(3-chlorophenyl)-6-(2-methyl-1,2,3,4-tetrahydroisoquinolin-7-yl)-N-(oxetan-3-ylmethyl)-7-oxo-4,5,6,7-tetrahydro-1H-pyrazolo[3,4-c]pyridine-3-carboxamide], the IC50 lay within 300 to 1000 nM. With `Cc1ccncc1CNC(=O)n1nc(-c2cccc(Cl)c2)c2c1CCN(c1ccc3c(c1)CN(CCO)CC3)C2=O` [Example 4003, 3-(3-chlorophenyl)-5-(2-(2-hydroxyethyl)-1,2,3,4-tetrahydroisoquinolin-7-yl)-N-((4-methylpyridin-3-yl)methyl)-4-oxo-4,5,6,7-tetrahydro-1H-pyrazolo[4,3-c]pyridine-1-carboxamide], the IC50 is 100 to 300 nM. Turning to `Cc1cc(CNC(=O)c2nn(-c3cccc(Cl)c3)c3c2CCN(c2ccc4c(c2)CN(C)CC4)C3=O)[nH]n1` [Example 1065, 1-(3-chlorophenyl)-6-(2-methyl-1,2,3,4-tetrahydroisoquinolin-7-yl)-N-((3-methyl-1H-pyrazol-5-yl)methyl)-7-oxo-4,5,6,7-tetrahydro-1H-pyrazolo[3,4-c]pyridine-3-carboxamide], the 50% inhibitory concentration (IC50) lay in the range of 10 to 100 nM.

The values above are taken from US20260132132A1, “3A,4,5,6-TETRAHYDRO-1 H-PYRAZOLO[3,4-C]PYRIDIN-7(7AH)-ONE DERIVATIVES AS FACTOR XIIA INHIBITORS” (KALVISTA PHARMACEUTICALS LIMITED, priority 2022, published 2026).
